For the assay, the system named is gene expression profile of heart, output variable Age. Briefly: Classification of gene expression profile for age (Young/Old) using supervised learning, Support Vector Machine. It is filed as in vivo, mice. As for the experimental part:
Male B6C3F, mice (6-7 weeks of age) were purchased from Harlan Sprague Dawley. Mice were housed singly and provided water ad libitum. The control group (OC, N=5) was fed 98 kcal/week of modified AIN-93M semi-purified diet (Bio-serv, Frenchtown, N.J.), which provides approximately 15% fewer calories than the average ad libitum dietary intake. The treatment group (RES, N=5) was fed the same caloric intake as controls, but were supplemented with resveratrol 50 mg/kg diet (w/w) (3,4′,5-Trihydroxy-trans-stilbene; Sigma) from 14 months of age. Animals (OC and RES) were sacrificed at 30 months of age. Young animals were sacrificed at 5 months of age (YC, N=5). Hearts from all abovementioned groups were collected, immediately frozen in liquid nitrogen and stored at −80° C. until analysis.
Total RNA was extracted from frozen tissue by using TRIZOL reagent (Life Technologies, Grand Island, N.Y.). Polyadenylate [poly(A)^+] RNA was purified from total RNA with oligo-dT-linked oligotex resin (Qiagen, Valencia, Calif.). […]
For the classification analysis, supervised learning using Support Vector Machine (SVM) was performed based on supplied training data, “Young (YC)” and “Old (OC)” groups, to find rules for predicting the output variable “Age”. […] Results from the resveratrol group were then analysed using the Classification function for prediction of the output variable, “Age”. […]

SMILES strings stand for the structures.

Regarding `Oc1ccc(/C=C/c2cc(O)cc(O)c2)cc1` [resveratrol, 3,4′,5-Trihydroxy-trans-stilbene], the “Classification of chips for output variable Age” value (all 4 chips of resveratrol group) was “classified as Young”. In addition, the “Average of g (mean classification output of group)” value (mean of 4 chips of the RES group, YC 0.9998575, OC −1.023992) came to 0.3486.

The values are drawn from patent US20090247646A1, “USE OF RESVERATROL AND DERIVATIVES THEREOF FOR PROMOTING THE WELLNESS STATE IN MAMMALS” (priority 2006, published 2009).
